Source: ChEMBL document CHEMBL1136704, “3-amino-4-sulfonylpyridinone acetamide and related pyridothiadiazine thrombin inhibitors” (Bioorg Med Chem Lett, 2003)

Columns and labels:
[1] = Half life period was determined; conditions: dog
Homo sapiens = organism: Homo sapiens; assay: Anticoagulant potency, activated partial thromboplastin time assay; format: functional
Prothrombin = Prothrombin (Homo sapiens, UniProt P00734); assay: Inhibition of human thrombin
[2] = Protein binding activity of compound in human plasma; % Free; format: ADME, cell-free
Serine protease 1 = Serine protease 1 (Homo sapiens, UniProt P07477); assay: Inhibitory activity against human trypsin
[3] = Pharmacokinetic property (Area under curve); format: ADME
[4] = Cmax value in dog; format: ADME, organism-based, Canis lupus familiaris; conditions: in vivo
Rattus norvegicus = organism: Rattus norvegicus; assay: Final plasma concentration in the rat ferric chloride thrombosis model; conditions: in vivo
[5] = Cmax value in dogs after oral administration at 1 mg/kg; format: ADME, organism-based, Canis lupus familiaris; set-up: dose 1 mg/kg, route oral; conditions: dog, in vivo
[6] = Half life period in dogs after oral administration at 1 mg/kg; format: ADME, organism-based, Canis lupus familiaris; set-up: dose 1 mg/kg, route oral; conditions: dog, in vivo
[7] = Pharmacokinetic property in dogs after oral administration at 1 mg/kg; format: ADME, organism-based, Canis lupus familiaris; set-up: dose 1 mg/kg, route oral; conditions: dog, in vivo

Sequence of Serine protease 1 (P07477 whole entry): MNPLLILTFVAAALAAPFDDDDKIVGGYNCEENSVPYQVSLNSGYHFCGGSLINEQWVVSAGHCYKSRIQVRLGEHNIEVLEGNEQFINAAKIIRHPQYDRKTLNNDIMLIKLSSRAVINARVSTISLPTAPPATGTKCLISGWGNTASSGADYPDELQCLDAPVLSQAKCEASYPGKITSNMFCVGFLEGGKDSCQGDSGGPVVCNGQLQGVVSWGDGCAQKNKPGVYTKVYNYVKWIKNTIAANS

SMILES | half-life [1] | Concentration (Homo sapiens) | Ki (Prothrombin) | Free [2] | Ki (Serine protease 1) | AUC [3] | Cmax [4] | concentration (Rattus norvegicus) | Cmax [5] | half-life [6] | AUC [7]
Cc1nc(N)ccc1CNC(=O)Cn1c(C)cc(S(=O)(=O)CC2CCC2)c(N)c1=O | 47 min | 0.23 µM | 0.2 nM | 45% | 550 nM | 2.58 µM·h | 570 nM | 680 nM | – | – | –
Cc1nc(N)ccc1CNC(=O)Cn1c(C)cc(S(=O)(=O)C2CC2)c(N)c1=O | – | 1.64 µM | 17 nM | – | 2800 nM | – | – | – | – | – | –
Cc1nc(N)ccc1CNC(=O)Cn1c(C)cc2c(c1=O)NCN(C1CC1)S2(=O)=O | – | 0.75 µM | – | – | 10000 nM | – | – | – | – | – | –
Cc1nc(N)ccc1CNC(=O)Cn1c(C)cc2c(c1=O)NCN(CC1CC1)S2(=O)=O | 136 min | 0.79 µM | 2.1 nM | 25% | 6100 nM | 2.14 µM·h | 590 nM | – | – | – | –
Cc1nc(N)ccc1CNC(=O)Cn1c(C)cc(S(=O)(=O)C2CCCCC2)c(N)c1=O | – | 0.75 µM | 3 nM | 38% | 260 nM | – | – | 650 nM | – | – | –
Cc1nc(N)ccc1CNC(=O)Cn1c(C)cc2c(c1=O)NCN(C1CCC1)S2(=O)=O | – | 1.11 µM | – | – | 6300 nM | – | – | – | – | – | –
Cc1ccc(S(=O)(=O)c2cc(C)n(CC(=O)NCc3ccc(N)nc3C)c(=O)c2N)cc1 | – | – | 94 nM | – | 800 nM | – | – | – | – | – | –
Cc1nc(N)ccc1CNC(=O)Cn1c(C)cc2c(c1=O)NCN(CC1CCC1)S2(=O)=O | – | 0.92 µM | – | – | 1600 nM | – | – | – | – | – | –
Cc1nc(N)ccc1CNC(=O)Cn1c(C)cc(S(=O)(=O)NC2CCC2)c(N)c1=O | – | 0.35 µM | – | 45% | 1100 nM | – | – | – | – | – | –
Cc1nc(N)ccc1CNC(=O)Cn1c(C)cc(S(=O)(=O)c2cccs2)c(N)c1=O | – | 0.39 µM | 1.7 nM | 40% | 340 nM | – | – | 430 nM | – | – | –
Cc1nc(N)ccc1CNC(=O)Cn1c(C)cc(S(=O)(=O)CC2CC2)c(N)c1=O | 66 min | 0.4 µM | 1.8 nM | 70% | 1900 nM | 0.8 µM·h | 370 nM | 550 nM | – | – | –
Cc1nc(N)ccc1CNC(=O)Cn1c(C)cc(S(=O)(=O)Cc2ccccc2)c(N)c1=O | – | 0.47 µM | – | 22% | 1600 nM | – | – | – | 450 nM | 63 min | 0.62 µM·h
Cc1nc(N)ccc1CNC(=O)Cn1c(C)cc(S(=O)(=O)NCC2CCC2)c(N)c1=O | – | 0.47 µM | 0.75 nM | 23% | 740 nM | – | – | 640 nM | – | – | –
Cc1nc(N)ccc1CNC(=O)Cn1c(C)cc(S(=O)(=O)NCC2CC2)c(N)c1=O | – | 0.75 µM | – | 53% | 1000 nM | – | – | – | – | – | –
Cc1nc(N)ccc1CNC(=O)Cn1c(C)cc(S(=O)(=O)CC2CCCC2)c(N)c1=O | – | 0.4 µM | 1.2 nM | 29% | 630 nM | – | – | 530 nM | – | – | –
Cc1nc(N)ccc1CNC(=O)Cn1c(C)cc(S(=O)(=O)NC2CC2)c(N)c1=O | – | 0.85 µM | – | – | 2900 nM | – | – | – | – | – | –
Cc1nc(N)ccc1CNC(=O)Cn1c(C)cc(S(=O)(=O)c2ccccc2)c(N)c1=O | – | 0.66 µM | 3.8 nM | 19% | 500 nM | – | – | 570 nM | – | – | –
